Reference: patent US5391540A, “Substituted pyridine compounds” (Rohm and Haas Company, priority 1993, dated 1995)

How the values were obtained:
Test in all cases: Pre-emergent herbicidal activity (Table A)
Assay type in all cases: in vivo
Annual Bluegrass = details: pre-emergence, Anbg, 11.2 kg/ha, 10-14 days, read-out: herbicidal rating (% inhibition)
Description: (§1) Tables A and B summarize results of tests conducted to determine the pre-emergent herbicidal activity of the compounds of this invention. The herbicidal ratings used in Tables A and B were assigned according to a scale based on the percent inhibition of each plant species. The herbicide rating symbols in Tables A and B are defined as follows: […]
(§2) One set of pre-emergent tests was conducted as follows:
(§3) Topsoil was placed in a pan and compacted to a depth of 0.95 to 1.27 cm. from the top of the pan. A predetermined number of seeds of each of several monocotyledonous and dicotyledonous annual plant species and/or vegetative propagules of various perennial plant species were placed on top of the soil. The soil required to level fill a pan after seeding or adding vegetative propagules was weighed into another pan. A known amount of the test compound dissolved or suspended in an organic solvent or water and applied in acetone or water as a carrier was thoroughly mixed with this cover soil, and the herbicide/soil mixture was used as a cover layer for the previously prepared pan. In Table A below the amounts of active ingredient were all equivalent to an application rate of 11.2 kilograms/hectare (kg/ha). After treatment, the pans were moved to a greenhouse bench where they were watered as needed to give adequate moisture for germination and growth.
(§4) Approximately 10-14 days (usually 11 days) after planting and treating, the plants were observed and the results recorded.
(§5) The plant species usually regarded as weeds which were utilized in one set of pre-emergent activity tests, the data for which are shown in Table A, are identified by letter headings printed diagonally above the columns according to the following legend: […]

Wild Buckwheat = details: Fallopia convolvulus, pre-emergence, Wibw, 11.2 kg/ha, 10-14 days, read-out: herbicidal rating (% inhibition)
Description: as §1, §2, §3, §4, §5

Indian Mustard = details: Brassica juncea, pre-emergence, Inmu, 11.2 kg/ha, 10-14 days, read-out: herbicidal rating (% inhibition)
Description: as §1, §2, §3, §4, §5

Seedling Johnsongrass = details: Sorghum halepense, pre-emergence, Sejg, 11.2 kg/ha, 10-14 days, read-out: herbicidal rating (% inhibition)
Description: as §1, §2, §3, §4, §5

Velvetleaf = details: Abutilon theophrasti, pre-emergence, Vele, 11.2 kg/ha, 10-14 days, read-out: herbicidal rating (% inhibition)
How it was run: (§6)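 Seeds or vegetative propagules were set on topsoil compacted to 0.95 to 1.27 cm below the pan rim, then covered with soil thoroughly mixed with a known amount of test compound in acetone or water carrier. Ratings follow a scale of percent inhibition per species.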

Morningglory = details: Ipomoea, pre-emergence, Mogl, 11.2 kg/ha, 10-14 days, read-out: herbicidal rating (% inhibition)
How it was run: as §6

Barnyardgrass = details: Echinochloa crus-galli, pre-emergence, Bygr, 11.2 kg/ha, 10-14 days, read-out: herbicidal rating (% inhibition)
How it was run: as §6

Yellow Nutsedge = details: Cyperus, pre-emergence, Yens, 11.2 kg/ha, 10-14 days, read-out: herbicidal rating (% inhibition)
How it was run: as §6

Cocklebur = details: Xanthium strumarium, pre-emergence, Cobu, 11.2 kg/ha, 10-14 days, read-out: herbicidal rating (% inhibition)
How it was run: as §6

Downy Brome = details: Bromus tectorum, pre-emergence, Dobr, 11.2 kg/ha, 10-14 days, read-out: herbicidal rating (% inhibition)
How it was run: as §6

Compound	inhibition at 11200 g/ha (Annual Bluegrass) [%]	inhibition at 11200 g/ha (Wild Buckwheat) [%]	inhibition at 11200 g/ha (Indian Mustard) [%]	inhibition at 11200 g/ha (Seedling Johnsongrass) [%]	inhibition at 11200 g/ha (Velvetleaf) [%]	inhibition at 11200 g/ha (Morningglory) [%]	inhibition at 11200 g/ha (Barnyardgrass) [%]	inhibition at 11200 g/ha (Yellow Nutsedge) [%]	inhibition at 11200 g/ha (Cocklebur) [%]	inhibition at 11200 g/ha (Downy Brome) [%]
COC(=O)c1c(OC)nc(C(F)(F)F)c(C(=O)OCC(F)(F)F)c1CC(C)C [Compound 112, 3,5-pyridinedicarboxylic acid, 2-methoxy-4-(2-methylpropyl)-6-(trifluoromethyl)-, 3-methyl 5-(2,2,2-trifluoroethyl) ester]	75 to 100	75 to 100	75 to 100	75 to 100	75 to 100	50 to 74	75 to 100	0 to 24	0 to 24	75 to 100
COC(=O)c1c(OC)nc(C(F)(F)F)c(-c2cnco2)c1CC(C)C [Compound 114, 3-pyridinecarboxylic acid, 2-methoxy-4-(2-methylpropyl)-5-(5-oxazolyl)-6-(trifluoromethyl)-, methyl ester]	75 to 100	75 to 100	75 to 100	75 to 100	75 to 100	50 to 74	75 to 100	25 to 49	0 to 24	75 to 100
COC(=O)c1c(OC)nc(C(F)(F)F)c(C=O)c1CC1CC1 [Compound 115, 3-pyridinecarboxylic acid, 4-(cyclopropylmethyl)-5-formy1-2-methoxy-6-(trifluoromethyl)-, methyl ester]	75 to 100	50 to 74	75 to 100	75 to 100	50 to 74	50 to 74	75 to 100	25 to 49	0 to 24	75 to 100
COC(=O)c1c(OC)nc(C(F)(F)F)c(CO)c1CC1CC1 [Compound 117, 3-pyridinecarboxylic acid, 4-(cyclopropylmethyl)-5-(hydroxymethyl)-2-methoxy-6-(trifluoromethyl)-, methyl ester]	75 to 100	50 to 74	50 to 74	75 to 100	25 to 49	0 to 24	75 to 100	0 to 24	0 to 24	0 to 24
COC(=O)c1c(OC)nc(C(F)(F)F)c(C2OCCO2)c1CC1CC1 [Compound 118, 3-pyridinecarboxylic acid, 4-(cyclopropylmethyl)-5-(1,3-dioxolan-2-yl)-2-methoxy-6-(trifluoromethyl)-, methyl ester]	75 to 100	75 to 100	75 to 100	75 to 100	75 to 100	75 to 100	75 to 100	75 to 100	0 to 24	75 to 100
COC(=O)c1c(OC)nc(C(F)(F)F)c(C(=O)SC)c1CC1CC1 [Compound 119, 3-pyridinecarboxylic acid, 4-(cyclopropylmethyl)-2-methoxy-5-[(methylthio)carbonyl]-6-(trifluoromethyl)-, methyl ester]	75 to 100	75 to 100	75 to 100	75 to 100	75 to 100	75 to 100	75 to 100	75 to 100	50 to 74	75 to 100
COC(=O)c1c(OC)nc(C(F)(F)F)c(N=C2CCCO2)c1CC(C)C [Compound 121, 3-pyridinecarboxylic acid, 5-[(dihydro-2(3H)-furanylidene)amino]-2-methoxy-4-(2-methylpropyl)-6-(trifluoromethyl)-, methyl ester]	75 to 100	75 to 100	75 to 100	75 to 100	75 to 100	50 to 74	75 to 100	50 to 74	75 to 100	75 to 100
COC(=O)c1c(OC)nc(C(F)(F)F)c(C2OCCS2)c1CC(C)C (stereo not shown) [Compound 122, 3-pyridinecarboxylic acid, 2-methoxy-4-(2-methylpropyl)-5-(1,3-oxathiolan-2-yl)-6-(trifluoromethyl)-, methyl ester]	75 to 100	75 to 100	75 to 100	75 to 100	75 to 100	75 to 100	75 to 100	50 to 74	0 to 24	75 to 100
COC(=O)c1c(OC)nc(C(F)(F)F)c(C2OCC(=O)O2)c1CC(C)C (stereo not shown) [Compound 123, 3-pyridinecarboxylic acid, 2-methoxy-4-(2-methylpropyl)-5-(4-oxo-1,3-dioxolan-2-yl)-6-(trifluoromethyl)-, methyl ester]	75 to 100	75 to 100	75 to 100	75 to 100	25 to 49	25 to 49	75 to 100	0 to 24	0 to 24	75 to 100
CCOC=NNC(=O)c1c(C(F)(F)F)nc(OC)c(C(=O)OC)c1CC(C)C [Compound 124, 3,5-pyridinedicarboxylic acid, 2-methoxy-4-(2-methylpropyl)-6-(trifluoromethyl)-, 3-methyl ester, 5-(ethoxymethylene)hydrazide]	0 to 24	0 to 24	0 to 24	0 to 24	0 to 24	0 to 24	0 to 24	0 to 24	0 to 24	0 to 24
COC(=O)c1c(OC)nc(C(F)(F)F)c(-c2nnco2)c1CC(C)C [Compound 125, 3-pyridinecarboxylic acid, 2-methoxy-4-(2-methylpropyl)-5-(1,3,4-oxadiazo1-2-yl)-6-(trifluoromethyl)-, methyl ester]	75 to 100	75 to 100	75 to 100	75 to 100	75 to 100	75 to 100	75 to 100	0 to 24	0 to 24	75 to 100
COC(=O)c1c(OC)nc(C(F)(F)F)c(C2OCC[S+]2[O-])c1CC(C)C (stereo not shown) [Compound 126, 3-pyridinecarboxylic acid, 2-methoxy-4-(2-methylpropyl)-5-(1,3-oxathiolan-2-yl)-6-(trifluoromethyl)-, methyl ester, S-oxide]	75 to 100	75 to 100	75 to 100	75 to 100	75 to 100	75 to 100	75 to 100	0 to 24	25 to 49	75 to 100
COC(=O)c1c(OC)nc(C(F)(F)F)c(C2OCCS2(=O)=O)c1CC(C)C (stereo not shown) [Compound 127, 3-pyridinecarboxylic acid, 2-methoxy-4-(2-methylpropyl)-5-(3,3-dioxo-1,3-oxathiolan-2-yl)-6-(trifluoromethyl)-, methyl ester]	75 to 100	50 to 74	50 to 74	75 to 100	25 to 49	25 to 49	75 to 100	0 to 24	0 to 24	75 to 100
